In patent publication US20210235699A1, “Adjuvant Compositions Comprising a Tetramethylguanidine and a 4-Isothiazolin-3-One” (Lonza, LLC, priority 2018, published 2021):
“Also recorded” adds a separate entry of the source. Structures can show the parent of a compound that is named as a salt. Marks after values point to notes of the source that are not given here.

Key:
Type in all cases: cell-based
[1] = tested on: combined bacterial test inoculum: Acinetobacter calcoaceticus, Escherichia coli, Pseudomonas aeruginosa, Enterobacter cloacae; assay: Bacterial challenge test (ASTM D2574-97, modified) in standard water based interior paint; design: key to Streak plate rank, 1st inoculation 24 h / Streak plate rank, 1st inoculation 72 h / Streak plate rank, 2nd inoculation 72 h / Streak plate rank, 3rd inoculation 24 h: 0 = no growth; 1 = 1-5 Colony Forming Unit (cfu); 2 = 6-15 cfu; 3 = 16-30 cfu; 4 = 31-45 cfu; 5 = greater than 45 cfu; 5c = Confluent Growth; details: for Dilution plate count, 3rd inoculation 72 h / Streak plate rank, 3rd inoculation 24 h: inoculum 2.50%; for Streak plate rank, 2nd inoculation 72 h: inoculum 5%; for Streak plate rank, 1st inoculation 24 h / Streak plate rank, 1st inoculation 72 h: inoculum 10%; for effect of guanidine on bactericidal activity of 4-isothiazolin-3-ones (in words): in combination with BIT and BBIT, Tables 3 and 5
Protocol: (§1) The following bacterial and fungal challenge tests were performed to ascertain whether low concentrations of 4-isothiazolin-3-one biocidal active compounds, pyrithione, coumarin or guanidine adjuvant are sufficient to prevent microbial contamination of final products when deliberately inoculated with spoilage microbes.
(§2) The tests were performed according to ASTM standard D2574-97 (Standard Test Method for Resistance of Emulsion Paints in the Container to Attack by Microorganisms, ASTM International, West Conshohocken, Pa.), with higher inoculation volumes and frequency. A standard water based interior paint was used as the test substrate. Sample sizes of 20 g test substrate were used and the test samples were prepared in a sterile 30 mL square Nalgene bottle.
The bacteria were grown on pH 5, 7, or 9 Trypticase Soy Agar (TSA) lawns. The bacteria were grown individually on TSA and harvested by using sterile buffered water. The bacterial lawns were washed off with 30 mL of sterile water and an equal volume of each individual cell suspension was withdrawn from each serum bottle to make a combined cell suspension. Combined bacterial suspension were about 10^7 cfu/mL, which provides about 10^6 cfu/mL in the sample.
(§3) The following microorganisms were used for inoculation of the tested samples:
(§4) For the bacterial challenge testing, each sample was inoculated with a combined bacterial test inoculum volume equivalent to 10% of the total initial sample volume for the initial inoculation, 5% of the total initial sample volume for the second inoculation and 2.5% of the total initial sample volume for the third inoculation. Inoculum volumes for the fungal challenge tests were 2%, 1% and 0.5% of the total initial sample volume, respectively. Samples were inoculated every 96 h.
(§5) Concentrations of biocidal active compounds and adjuvants refer to the final concentration in the test samples prior to the first inoculation.
(§6) The efficacy of the added agent in each sample was monitored by means of a streak plate test after 24 hours (all inoculations) and 72 hours of inoculation (first and second inoculation). At 72 hours of the third inoculation performed, a dilution plate count was performed in order to obtain a quantitative measurement of contamination (cfu/mL). A count of less than 10 colony forming units per mL ([…]) is considered to show no measurable contamination. For the streak plate tests, bacterial samples were streaked on Tryptic Soy Agar (TSA) and incubated for 48 hours at 30° C. before reading. Fungal samples were streaked on Potato Dextrose Agar (PDA) and incubated for 5 days at 25° C. before reading.
(§7) The streak plates were ranked from 0-5c according to the degree of microbial growth:
(§8) The challenge tests were performed as described above.

[2] = tested on: fungal test inoculum: Aspergillus niger, Penicillium funiculosum, Candida albicans; assay: Fungal challenge test (ASTM D2574-97, modified) in standard water based interior paint; design: key to Streak plate rank, 2nd inoculation 72 h / Streak plate rank, 1st inoculation 72 h / Streak plate rank, 1st inoculation 24 h / Streak plate rank, 2nd inoculation 24 h / Streak plate rank, 3rd inoculation 24 h: 0 = no growth; 1 = 1-5 Colony Forming Unit (cfu); 2 = 6-15 cfu; 3 = 16-30 cfu; 4 = 31-45 cfu; 5 = greater than 45 cfu; 5c = Confluent Growth; details: for Dilution plate count, 3rd inoculation 72 h / Streak plate rank, 3rd inoculation 24 h: inoculum 0.50%; for Streak plate rank, 1st inoculation 24 h / Streak plate rank, 1st inoculation 72 h: inoculum 2%; for effect of guanidine on fungicidal activity of 4-isothiazolin-3-ones (in words): in combination with BIT and BBIT, Tables 4 and 6
Protocol: as §1, §2
Fungal lawns were grown on Potato Dextrose Agar (PDA) or Sabouraud Dextrose Agar (SAB). Individual fungal spore suspensions were harvested by adding 10 mL of sterile 0.05% Triton X to fungal lawns. The lawns were then gently agitated by rubbing a sterile swab on the lawn, being careful not to puncture the agar. The liquid was then aseptically transferred to a sterile bottle containing sterile glass beads. The top of the bottle was closed and the bottle shaken vigorously to break up any chunks in the suspension. The shaken spore suspension was decanted through sterile fibers into another sterile bottle. The decanted spore suspension was counted using a hemocytometer. Once the spore counts were determined, each suspension was diluted in order to obtain 10^6 spore/mL. Each diluted fungal suspension was poured into a sterile container.
as §3
as §4, with “Inoculum volumes for the fungal challenge tests were 2%, 1% and 0.5% of the total initial sample volume, respectively.” left out
as §5, §6, §7, §8

[3] = tested on: bacterial test inoculum (Acinetobacter calcoaceticus, Escherichia coli, Pseudomonas aeruginosa, Enterobacter cloacae); assay: Quick kill testing in pre-contaminated standard interior paint (dilution-plate counts)
Protocol: An additional test was performed to analyze how quickly the tested biocidal compositions will recover a sample from microbial spoilage. For each sample, 20 g of a pre-contaminated standard interior paint formulation serving as a test substrate was weighed into a sterile container. All samples were contaminated with the bacterial test inoculum described above (10% of the of the total initial sample volume).
A dilution-plate count was performed on the untreated sample (0 hour time point) and a biocidal composition added aseptically to each sample. Subsequent to this treatment, further dilution-plate counts were performed at fixed time intervals (time points are given in hours) on each sample, including an untreated negative control. All samples were incubated at 30° C.±2° C.
Concentrations in ppm refer to final concentrations of the biocidal compositions in the test samples. The relative amounts of active compounds and adjuvant in the tested biocidal compositions were as indicated below: […]

With `[Na+].[O-][n+]1ccccc1[S-]` [NaPT, sodium pyrithione] the “Dilution plate count, 3rd inoculation 72 h” value (“Dilution plate count” for short) ([1]; 80 ppm) was 2.2 × 10^7 cfu/mL, the “Streak plate rank, 3rd inoculation 24 h” value ([1]; 80 ppm) was 5c and the “Streak plate rank, 2nd inoculation 72 h” value ([1]; 80 ppm) was 5c. For the same compound, the “Streak plate rank, 1st inoculation 24 h” value ([1]; 80 ppm) was 5c, the “Streak plate rank, 1st inoculation 72 h” value ([1]; 80 ppm) was 5c and the “Dilution plate count” value ([2]; 80 ppm) was under 10 cfu/mL. For the same compound, the “Streak plate rank, 3rd inoculation 24 h” value ([2]; 80 ppm) was 0, the “Streak plate rank, 2nd inoculation 24 h” value ([2]; 80 ppm, inoculum 1%) was 0 and the “Streak plate rank, 2nd inoculation 72 h” value ([2]; 80 ppm, inoculum 1%) was 0. The “Streak plate rank, 1st inoculation 24 h” value ([2]; 80 ppm) was 0 and the “Streak plate rank, 1st inoculation 72 h” value ([2]; 80 ppm) was 0.

`CN(C)C(=N)N(C)C` [TMG, 1,1,3,3-tetramethylguanidine] was tested, and the “Dilution plate count” value ([1]; 750 ppm) was 1.7 × 10^5 cfu/mL, the “Streak plate rank, 3rd inoculation 24 h” value ([1]; 750 ppm) was 5c and the “Streak plate rank, 2nd inoculation 72 h” value ([1]; 750 ppm) was 5c. For the same compound, the “Streak plate rank, 1st inoculation 24 h” value ([1]; 750 ppm) was 5 (5 = greater than 45 cfu), the “Streak plate rank, 1st inoculation 72 h” value ([1]; 750 ppm) was 5c and the “Dilution plate count” value ([1]; 1000 ppm) was 2.1 × 10^6 cfu/mL. The “Streak plate rank, 3rd inoculation 24 h” value ([1]; 1000 ppm) was 5c, the “Streak plate rank, 2nd inoculation 72 h” value ([1]; 1000 ppm) was 5c and the “Streak plate rank, 1st inoculation 24 h” value ([1]; 1000 ppm) was 5 (5 = greater than 45 cfu). The “Streak plate rank, 1st inoculation 72 h” value ([1]; 1000 ppm) was 5 (5 = greater than 45 cfu), the “Dilution plate count” value ([1]; 1250 ppm) was 6.6 × 10^6 cfu/mL and the “Streak plate rank, 3rd inoculation 24 h” value ([1]; 1250 ppm) was 5c. For the same compound, the “Streak plate rank, 2nd inoculation 72 h” value ([1]; 1250 ppm) was 5c, the “Streak plate rank, 1st inoculation 24 h” value ([1]; 1250 ppm) was 0 and the “Streak plate rank, 1st inoculation 72 h” value ([1]; 1250 ppm) was 0. For the same compound, the “Dilution plate count” value ([1]; 1500 ppm) was under 10 cfu/mL, the “Streak plate rank, 3rd inoculation 24 h” value ([1]; 1500 ppm) was 3 (3 = 16-30 cfu) and the “Streak plate rank, 2nd inoculation 72 h” value ([1]; 1500 ppm) was 0. The “Streak plate rank, 1st inoculation 24 h” value ([1]; 1500 ppm) was 0, the “Streak plate rank, 1st inoculation 72 h” value ([1]; 1500 ppm) was 0 and the “effect of guanidine on bactericidal activity of 4-isothiazolin-3-ones (in words)” value [1] was “significantly improved”. For the same compound, the “Dilution plate count” value ([2]; 750 ppm) was under 10 cfu/mL, the “Streak plate rank, 3rd inoculation 24 h” value ([2]; 750 ppm) was 3 (3 = 16-30 cfu) and the “Streak plate rank, 1st inoculation 24 h” value ([2]; 750 ppm) was 4 (4 = 31-45 cfu). For the same compound, the “Streak plate rank, 1st inoculation 72 h” value ([2]; 750 ppm) was 0, the “Streak plate rank, 2nd inoculation 72 h” value ([2]; 750 ppm, inoculum added was 2%) was 1** (1 = 1-5 Colony Forming Unit (cfu)) and the “Dilution plate count” value ([2]; 1000 ppm) was under 10 cfu/mL. The “Streak plate rank, 3rd inoculation 24 h” value ([2]; 1000 ppm) was 3 (3 = 16-30 cfu), the “Streak plate rank, 1st inoculation 24 h” value ([2]; 1000 ppm) was 4 (4 = 31-45 cfu) and the “Streak plate rank, 1st inoculation 72 h” value ([2]; 1000 ppm) was 0. The “Streak plate rank, 2nd inoculation 72 h” value ([2]; 1000 ppm, inoculum added was 2%) was 0**, the “Dilution plate count” value ([2]; 1250 ppm) was under 10 cfu/mL and the “Streak plate rank, 3rd inoculation 24 h” value ([2]; 1250 ppm) was 3 (3 = 16-30 cfu). The “Streak plate rank, 1st inoculation 24 h” value ([2]; 1250 ppm) was 2 (2 = 6-15 cfu), the “Streak plate rank, 1st inoculation 72 h” value ([2]; 1250 ppm) was 0 and the “Streak plate rank, 2nd inoculation 72 h” value ([2]; 1250 ppm, inoculum added was 2%) was 0**. For the same compound, the “Dilution plate count” value ([2]; 1500 ppm) was under 10 cfu/mL, the “Streak plate rank, 3rd inoculation 24 h” value ([2]; 1500 ppm) was 3 (3 = 16-30 cfu) and the “Streak plate rank, 1st inoculation 24 h” value ([2]; 1500 ppm) was 2 (2 = 6-15 cfu). The “Streak plate rank, 1st inoculation 72 h” value ([2]; 1500 ppm) was 0, the “Streak plate rank, 2nd inoculation 72 h” value ([2]; 1500 ppm, inoculum added was 2%) was 0** and the “effect of guanidine on fungicidal activity of 4-isothiazolin-3-ones (in words)” value [2] was “enhancing effect; also recorded: significantly improved”. For the same compound, the “Dilution-plate count T4” value ([3]; Table 9, 940 ppm, 4 hours after treatment, 30° C.) was 1.19 × 10^7, the “Dilution-plate count T8” value ([3]; Table 9, 940 ppm, 8 hours after treatment, 30° C.) was 1.02 × 10^7 and the “Dilution-plate count T24” value ([3]; Table 9, 940 ppm, 24 hours after treatment, 30° C.) was 4.0 × 10^6. For the same compound, the “quick kill performance (in words)” value ([3]; Tables 8 and 9) was “markedly accelerated the recovery”.

`CNC(=N)N` [methylguanidine HCl, Methylguanidine HCl] was tested, and the “effect of guanidine on bactericidal activity of 4-isothiazolin-3-ones (in words)” value [1] was “not achieved” and the “effect of guanidine on fungicidal activity of 4-isothiazolin-3-ones (in words)” value [2] was “not achieved”.
